Patent US20220401448A1, “Pharmaceutical Compositions Comprising an Inhibitor of a Histon-deacetylase (HDACi) and an Agonist of Toll-like-receptor 7 and/or 8 (TLR7 and/or TLR8) and Their Use in the Treatment of Cancer” (priority 2019, published 2022)
Values after ≈ are worked out from the molar mass of the structure shown. Like-named read-outs stand apart in the source and are kept apart here.

Assays:
[1] = test system: OvCa236 primary ovarian cancer cells; assay: Individual effects (IC50), OvCa236; assay type: cell-based; conditions: OvCa236, single drug
[2] = test system: SKOV3 ovarian cancer cell line; assay: MTT proliferation assay, single drugs, SKOV3; assay type: cell-based; conditions: Homo sapiens
[3] = common vehicles; cited from earlier work
[4] = test system: Peripheral Blood Mononuclear Cells (PBMC); assay: Induction of apoptosis in PBMC from healthy volunteers; conditions: 24 h of drug exposure, 1×IC50 (SKOV3 values)
Text: The drug doses (1×IC50) employed for both compound classes were those obtained in SKOV3 cells.

[5] = test system: OvCa2810 primary ovarian cancer cells; assay: Individual effects (IC50), OvCa2810; assay type: cell-based; conditions: OvCa2810, single drug
[6] = test system: OvCar3 ovarian cancer cell line; assay: Individual effects (IC50), OvCar3; assay type: cell-based; conditions: Homo sapiens, OVCAR-3
[7] = test system: OvCa28 primary ovarian cancer cells; assay: MTT proliferation assay, single drugs, OvCa28; assay type: cell-based; conditions: for resistance of primary ovarian cancer cells compared to SKOV3: OvCa28 IC50 vs SKOV3 IC50; for IC50: read-out: IC50 (cell growth)
Method: OvCa28 primary ovarian cancer cells were isolated from a pretreated patient (patient number 28). These primary ovarian cancer cells were treated individually with either the HDAC inhibitor Romidepsin or the TLR7 agonist Vesatolimod as shown in FIG. 4. Cell growth was determined by the MTT proliferation assay.

[8] = test system: SKOV3^WT ovarian carcinoma cell line; assay: Screening of SKOV3^WT for HERV expression using qPCR; assay type: cell-based; conditions: for ΔCt HERV Henv: untreated 15.87 ± 0.56; for ΔCt HERV KISD: untreated 17.66 ± 0.23; for ΔCt HERV Kpol: untreated 18.16 ± 0.48; for ΔCt HERV Kenv: untreated 18.49 ± 0.45; for ΔCt HERV IDDMK1.2: untreated 18.68 ± 0.41; for ΔCt KERV Kseminoma: untreated 18.90 ± 0.41; for ΔCt HERV V3.1: untreated 19.32 ± 0.41; for ΔCt HERV Kgag: untreated 19.47 ± 0.58; for ΔCt HERV Fpol: untreated 19.69 ± 0.37; for ΔCt HERV KLTR: untreated 19.91 ± 0.60; for ΔCt HERV Eenv: untreated 20.10 ± 0.51; for ΔCt HERV Wprt: untreated 20.48 ± 0.72; for ΔCt HERV FRD1: untreated 21.71 ± 0.60; for ΔCt HERV Wenv: untreated 22.12 ± 0.53; for ΔCt HERV WE1: untreated 22.12 ± 0.62; for ΔCt HERV V1: untreated 22.95 ± 1.89; for ΔCt HERV V2: untreated 23.11 ± 2.07; for ΔCt HERV Penv: untreated 25.26 ± 0.48; for ΔCt HERV Pgag: untreated 25.33 ± 0.31; for ΔCt HERV HC2pol: untreated 25.99 ± 0.57; for ΔCt HERV Ppol: untreated 26.05 ± 0.31; for ΔCt HERV C: untreated 26.20 ± 0.36; for ΔCt HERV MER34.1: untreated 27.96 ± 0.43; for ΔCt HERV T: untreated 28.36 ± 0.87; for ΔCt HERV L: untreated 28.42 ± 1.52; for ΔCt HERV Fc1: untreated 29.68 ± 0.57; for ΔCt HERV Spol: untreated 32.00 ± 0.73
Method: In particular, the SKOV3^WT ovarian carcinoma cell line was screened for HERV expression using quantitative PCT (qPCR). […] Gene expression was considered enforced when more than 3 PCR-cycles of difference (Untreated−Treated) was calculated (n≥3).
18S ribosomal RNA serves as standard.

NFkB activity = NFkB activity by luciferase assay (NanoLuc reporter vector with NF-κB response element); assay type: cell-based
Method: In order to make conclusions about NFkB activation, the NFkB activity was analyzed by luciferase assay. The NanoLuc® Reporter Vector with NF-κB Response Element from Promega was used for this purpose.
The pNL3.2.NF-κB-RE[NlucP/NF-κB-RE/Hygro] Vector pNL3.2. (GenBank® Accession Number JQ513377) contains five copies of an NF-κB response element (NF-κB-RE) that drives transcription of a destabilized form of NanoLuc® luciferase, an engineered small (23.3 kDa) luciferase fusion protein. The NlucP reporter consists of NanoLuc® luciferase with a C-terminal fusion to PEST, a protein destabilization domain, which responds more quickly and with greater magnitude to changes in transcriptional activity than unmodified NanoLuc® luciferase. NanoLuc® (Nluc) luciferase is a small enzyme (19.1 kDa) engineered for optimal performance as a luminescent reporter. The luminescent reaction is ATP-independent and designed to suppress background luminescence for maximal assay sensitivity.
Without stimulation we detect about 6000 RLU. […] In summary, loss of NFkB was confirmed not only by Western Blot, but also in this functional test by loss of NFkB functionality using the reporter vector with NF-κB response element.

SKOV3^WT xenograft = conditions: i.p. Romidepsin 1 mg/kg, Vesatolimod 5 mg/kg, four times at 3 day intervals
Method: 1 mm^3 tumor pieces were implanted subcutaneosly into six to eight week old female NMRI nude mice by minimal operative intervention. […] Three days after mice were intraperitoneally treated at doses of 1 mg/kg and 5 mg/kg body weight four times at 3 day intervals for 12 consecutive days.

SKOV3 cells = assay: Dose-response of HERV transcription by qPCR, SKOV3; conditions: FIG. 9
Text: The term ΔCt reflects the difference (Δ) in cycle (C) thresholds (t). […] Measurement of specific RNA transcripts like HERV-V1/V2 by qPCR is usually performed in relation to the standard 18S, more or less transcription products are expressed in + or −ΔCt. Furthermore, differences in ΔCt between treated and untreated cells were shown as ΔΔCt.

HERV-V1 and V2 = assay: ChIP (anti-H3K9ac) with qPCR of HERV-V1 and V2; assay type: cell-based; conditions: SKOV3, OvCar3, OvCa236
Method: While the data concerning the transcriptional upregulation of HERV-V1/V2 upon HDAC inhibition were confirmed, it is unclear whether this is a direct effect of the drugs on epigenetic marks proximate to sites of HERV-V1/V2 integration. For this reason, ChIP-analyses of relevant histones were performed (ChIP=chromatin immunoprecipitation, was performed as described in Nakato R. et al. “Methods for ChIP-seq analysis: A practical workflow and advanced applications”, Methods 2020, doi.org/10.1016/j.ymeth.2020.03.005). Histone H3 along with H2A, H2B and H4 is involved in the structure of chromatin in eukaryotic cells. Histone H3 can undergo several different types of epigenetic modifications that influence cellular processes. These modifications include acetylation, phosphorylation, methylation, ubiquitination, and ADP-ribosylation and occur on the N-terminal tail domains of histone H3. […] In most species, histone H3 is primarily acetylated at lysine 9, 14, 18, and 27. […] We analyzed not only the ovarian cell lines SKOV3 and OVCar3, but also the primary cancer cell line OvCa236 derived from a patient. […] We therefore performed Immunoprecipitation using a anti-histone H3K9ac (Acetyl H3K9) polyclonal antibody and performed quantitative PCT (qPCR) as already described in Example 2.
HERV-V1 and V2, respectively, were analyzed separately. […]

[9] = SK-OV-3, SKOV3, single drug, read-out: IC50
[10] = OvCar3, single drug, read-out: IC50

Molecule | IC50 [1] [µM] | IC50 [2, 9] [µM] | dissolution [3] | rate of apoptosis [4] | IC50 [5] [µM] | IC50 [6, 10] [µM] | resistance of primary ovarian cancer cells compared to SKOV3 [7] [fold] | ΔCt HERV Henv ([8]; 1x drug) | ΔCt HERV KISD ([8]; 1x drug) | ΔCt HERV Kpol ([8]; 1x drug) | ΔCt HERV Kenv ([8]; 1x drug) | ΔCt HERV IDDMK1.2 ([8]; 1x drug) | ΔCt KERV Kseminoma ([8]; 1x drug) | ΔCt HERV V3.1 ([8]; 1x drug) | ΔCt HERV Kgag ([8]; 1x drug) | ΔCt HERV Fpol ([8]; 1x drug) | ΔCt HERV KLTR ([8]; 1x drug) | ΔCt HERV Eenv ([8]; 1x drug) | ΔCt HERV Wprt ([8]; 1x drug) | ΔCt HERV FRD1 ([8]; 1x drug) | also measured
CC(C)Cn1cnc2c(N)nc3ccccc3c21 [Imiquimod, imiquimod] | 500 | 15 | difficult to dissolve | about 3% | 500 | 23 |  |  |  |  |  |  |  |  |  |  |  |  |  |  | 
C/C=C1\NC(=O)[C@H]2CSSCC/C=C/[C@H](CC(=O)N[C@H](C(C)C)C(=O)N2)OC(=O)[C@H](C(C)C)NC1=O [Romidepsin, romidepsin] | 0.003 |  |  | about 3% | 0.006 |  | ~188 | 14.87 ± 0.30 | 17.10 ± 0.35 | 18.19 ± 0.51 | 18.48 ± 0.26 | 17.66 ± 0.27 | 19.70 ± 0.76 | 18.63 ± 0.36 | 18.57 ± 0.43 | 19.67 ± 0.22 | 21.02 ± 1.95 | 19.99 ± 0.51 | 20.97 ± 1.15 | 22.07 ± 0.64 | IC50 [7]: 0.75 µg/mL (≈ 1.39 µM); IC50 ([2]; SK-OV-3): 0.004 µM; IC50 ([2]; SK-OV-3, read-out: IC50 (cell growth)): 0.004 µg/mL; ΔCt HERV Wenv ([8]; 1x drug): 22.33 ± 0.33; ΔCt HERV WE1 ([8]; 1x drug): 21.92 ± 1.02; ΔCt HERV V1 ([8]; 1x drug): 15.30 ± 0.36; ΔCt HERV V2 ([8]; 1x drug): 15.24 ± 0.25; ΔCt HERV Penv ([8]; 1x drug): 25.46 ± 0.60; ΔCt HERV Pgag ([8]; 1x drug): 26.02 ± 0.50; ΔCt HERV HC2pol ([8]; 1x drug): 24.85 ± 0.35; ΔCt HERV Ppol ([8]; 1x drug): 26.55 ± 0.39; ΔCt HERV C ([8]; 1x drug): 26.79 ± 0.97; ΔCt HERV MER34.1 ([8]; 1x drug): 25.78 ± 0.13; ΔCt HERV T ([8]; 1x drug): 29.31 ± 0.84; ΔCt HERV L ([8]; 1x drug): 27.62 ± 0.95; ΔCt HERV Fc1 ([8]; 1x drug): 28.17 ± 3.80; ΔCt HERV Spol ([8]; 1x drug): 31.04 ± 1.11; ΔCt HERV P4.6 ([8]; 1x drug, untreated […]): 31.65 ± 1.16; IC50 [6]: 0.007 µM
CCCCOc1nc(N)c2c(n1)N(Cc1cccc(CN3CCCC3)c1)CC(=O)N2 [Vesatolimod, vesatolimod] | 32 | 39 | better dissolution profile in common vehicles | about 8% | 40 | 32 | ~2 |  |  |  |  |  |  |  |  |  |  |  |  |  | IC50 ([7]; OvCa28, single drug, MTT): 30 µg/mL (≈ 73.1 µM); IC50 ([2]; SK-OV-3, SKOV3, single drug, MTT, read-out: IC50 (cell growth)): 12.5 µg/mL; NFkB activity (reporter) (NFkB activity; in both cell lines, OvCar 3 and SKOV3, without stimulation about 6000 RLU): slightly reduced activity; total tumor volume (SKOV3^WT xenograft): did reduce the total tumor volume
O=C(CCCCCCC(=O)Nc1ccccc1)NO [Vorinostat, vorinostat] |  |  |  | about 6% |  |  |  | 15.51 ± 0.31 | 17.71 ± 0.19 | 18.81 ± 0.30 | 19.26 ± 1.00 | 18.29 ± 0.29 | 20.25 ± 0.18 | 19.22 ± 0.33 | 19.17 ± 0.41 | 20.37 ± 0.49 | 19.31 ± 0.42 | 20.08 ± 0.25 | 20.80 ± 0.34 | 22.51 ± 0.45 | ΔCt HERV Wenv ([8]; 1x drug): 22.03 ± 0.34; ΔCt HERV WE1 ([8]; 1x drug): 22.18 ± 0.32; ΔCt HERV V1 ([8]; 1x drug): 15.48 ± 0.78; ΔCt HERV V2 ([8]; 1x drug): 15.46 ± 0.79; ΔCt HERV Penv ([8]; 1x drug): 25.39 ± 0.49; ΔCt HERV Pgag ([8]; 1x drug): 25.45 ± 0.11; ΔCt HERV HC2pol ([8]; 1x drug): 25.52 ± 0.39; ΔCt HERV Ppol ([8]; 1x drug): 26.34 ± 0.33; ΔCt HERV C ([8]; 1x drug): 27.84 ± 0.59; ΔCt HERV MER34.1 ([8]; 1x drug): 26.62 ± 0.62; ΔCt HERV T ([8]; 1x drug): 28.24 ± 0.72; ΔCt HERV L ([8]; 1x drug): 28.08 ± 0.90; ΔCt HERV Fc1 ([8]; 1x drug): 30.36 ± 0.84; ΔCt HERV Spol ([8]; 1x drug): 30.80 ± 0.75; HERV-V2 expression levels ([8]; SKOV3, qPCR, FIG. 1B): increased; expression of HERV-V1 and V2 (SKOV3 cells): increased; expression of HERV-V1 and V2 transcripts after H3K9ac immunoprecipitation (HERV-V1 and V2): enhanced
TNFα |  |  |  |  |  |  |  |  |  |  |  |  |  |  |  |  |  |  |  |  | response of NF-κB reporter vector (NFkB activity; positive control, inflammatory stimulation): 20.000 RLU
